Results reported in PubChem BioAssay AID248 (DTP/NCI, 2004).
Values joined by “and” are separate entries in the source; they are usually repeats but may differ in a detail not shown here. Equal values may be shown once. Toxic doses and inconclusive results are not listed. No stated cut-off is given here; in the data, active means T/C of 150% or more; inactive means T/C below 125%.

Tested on: L1210 leukemia ip in BDF1 mice, survival T/C
Assay: NCI In Vivo Anticancer Drug Screen. Data for tumor model L1210 Leukemia (intraperitoneal) in B6D2F1 (BDF1) mice
Conditions: endpoint: mean survival time, higher = longer survival
Method in brief: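 Value reflects the ratio of survival in compound-treated mice to survival in vehicle-treated controls, with both groups carrying the same transplanted tumor.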

[1] = dose: 100.0 mg/kg/injection, schedule: Q04DX003 (ip), vehicle: saline with Tween-80
[2] = dose: 100.0 mg/kg/injection, schedule: Q01DX001 (ip), vehicle: carboxymethylcellulose (CMC)
[3] = dose: 200.0 mg/kg/injection, schedule: Q01DX001 (ip), vehicle: carboxymethylcellulose (CMC)
[4] = dose: 400.0 mg/kg/injection, schedule: Q01DX001 (ip), vehicle: carboxymethylcellulose (CMC)
[5] = dose: 25.0 mg/kg/injection, schedule: Q04DX003 (ip), vehicle: saline
[6] = dose: 50.0 mg/kg/injection, schedule: Q04DX003 (ip), vehicle: saline
[7] = dose: 100.0 mg/kg/injection, schedule: Q01DX009 (ip), vehicle: saline
[8] = dose: 200.0 mg/kg/injection, schedule: Q01DX009 (ip), vehicle: saline
[9] = dose: 400.0 mg/kg/injection, schedule: Q01DX009 (ip), vehicle: saline
[10] = dose: 100.0 mg/kg/injection, schedule: Q01DX009 (ip), vehicle: Klucel (hydroxypropylcellulose) (HPC)
[11] = dose: 200.0 mg/kg/injection, schedule: Q01DX009 (ip), vehicle: Klucel (hydroxypropylcellulose) (HPC)
[12] = dose: 200.0 mg/kg/injection, schedule: Q04DX003 (ip), vehicle: saline with Tween-80
[13] = dose: 400.0 mg/kg/injection, schedule: Q04DX003 (ip), vehicle: saline with Tween-80

Measured: T/C

O=C(/C=C/c1ccc(Cl)c(Cl)c1)c1ccc(Cl)cc1
inactive: dose: 6.25 mg/kg/injection, schedule: Q01DX009 (ip), vehicle: saline with Tween-80 97 % of control | dose: 6.25 mg/kg/injection, schedule: Q04DX003 (ip), vehicle: saline with Tween-80 110 % of control | dose: 12.5 mg/kg/injection, schedule: Q01DX009 (ip), vehicle: saline with Tween-80 97 % of control | dose: 12.5 mg/kg/injection, schedule: Q04DX003 (ip), vehicle: saline with Tween-80 96 % of control | dose: 25.0 mg/kg/injection, schedule: Q01DX009 (ip), vehicle: saline with Tween-80 95 % of control | dose: 25.0 mg/kg/injection, schedule: Q04DX003 (ip), vehicle: saline with Tween-80 94 % of control and 89 % of control | [1] 87 % of control and 88 % of control

c1nc(NCCc2cnc[nH]2)c2[nH]cnc2n1
inactive: [2] 95 % of control | [3] 90 % of control | [4] 97 % of control

COc1ccccc1C(=O)NN
inactive: dose: 6.25 mg/kg/injection, schedule: Q04DX003 (ip), vehicle: saline 98 % of control | dose: 12.5 mg/kg/injection, schedule: Q04DX003 (ip), vehicle: saline 98 % of control | dose: 25.0 mg/kg/injection, schedule: Q01DX009 (ip), vehicle: saline 106 % of control | [5] 103 % of control | dose: 50.0 mg/kg/injection, schedule: Q01DX009 (ip), vehicle: saline 110 % of control

S=C=NCc1ccc(Br)cc1
inactive: dose: 1.25 mg/kg/injection, schedule: Q01DX009 (ip), vehicle: other 95 % of control | dose: 2.5 mg/kg/injection, schedule: Q01DX009 (ip), vehicle: other 100 % of control | dose: 2.5 mg/kg/injection, schedule: Q04DX003 (ip), vehicle: other 103 % of control | dose: 5.0 mg/kg/injection, schedule: Q01DX009 (ip), vehicle: other 97 % of control | dose: 5.0 mg/kg/injection, schedule: Q04DX003 (ip), vehicle: other 103 % of control | dose: 10.0 mg/kg/injection, schedule: Q01DX001 (ip), vehicle: other 93 % of control | dose: 10.0 mg/kg/injection, schedule: Q04DX003 (ip), vehicle: other 88 % of control

CNC(=O)C1OC(n2cnc3c(N)ncnc32)C(O)C1O (stereo not given)
inactive: dose: 0.19 mg/kg/injection, schedule: Q01DX005 (ip), vehicle: saline 110 % of control | dose: 0.19 mg/kg/injection, schedule: Q01DX009 (ip), vehicle: saline 114 % of control | dose: 0.39 mg/kg/injection, schedule: Q01DX005 (ip), vehicle: saline 105 % of control | dose: 0.39 mg/kg/injection, schedule: Q01DX009 (ip), vehicle: saline 93 % of control | dose: 0.78 mg/kg/injection, schedule: Q01DX005 (ip), vehicle: saline 116 % of control | dose: 0.78 mg/kg/injection, schedule: Q01DX009 (ip), vehicle: saline 103 % of control

Cc1cc(-c2cc(C)c(O)c(C(C)(C)C)c2)cc(C(C)(C)C)c1O
inactive: dose: 25.0 mg/kg/injection, schedule: Q04DX002 (ip), vehicle: gum acacia 95 % of control | dose: 50.0 mg/kg/injection, schedule: Q04DX002 (ip), vehicle: gum acacia 95 % of control | dose: 100.0 mg/kg/injection, schedule: Q04DX002 (ip), vehicle: gum acacia 91 % of control

COc1ccc(C(SCC(NC(=O)OCc2ccccc2)C(=O)O)c2ccc(OC)cc2)cc1 (stereo not given)
inactive: dose: 75.0 mg/kg/injection, schedule: Q01DX001 (ip), vehicle: carboxymethylcellulose (CMC) 91 % of control | dose: 150.0 mg/kg/injection, schedule: Q01DX001 (ip), vehicle: carboxymethylcellulose (CMC) 91 % of control | dose: 300.0 mg/kg/injection, schedule: Q01DX001 (ip), vehicle: carboxymethylcellulose (CMC) 89 % of control

CNC(=O)CCC(=O)O
inactive: [6] 103 % of control | dose: 100.0 mg/kg/injection, schedule: Q01DX001 (ip), vehicle: saline 102 % of control | dose: 100.0 mg/kg/injection, schedule: Q04DX003 (ip), vehicle: saline 107 % of control | dose: 200.0 mg/kg/injection, schedule: Q01DX001 (ip), vehicle: saline 93 % of control | dose: 200.0 mg/kg/injection, schedule: Q04DX003 (ip), vehicle: saline 108 % of control | dose: 400.0 mg/kg/injection, schedule: Q01DX001 (ip), vehicle: saline 94 % of control

NC(=O)NC(=O)c1ccccc1
inactive: [7] 96 % of control | [8] 101 % of control | [9] 106 % of control

Cc1ccc(S(=O)(=O)OC2C(C)(C)C(=O)C2(C)C)cc1
inactive: [2] 97 % of control | [3] 92 % of control | [4] 92 % of control

CC(=O)OCC(Br)C(Br)COC(C)=O (stereo not given)
inactive: [7] 98 % of control | [8] 95 % of control | [9] 103 % of control

Cc1c(Cl)cccc1NC(=O)Oc1ccc(F)cc1Cl
inactive: [10] 94 % of control | [11] 95 % of control

COC(=O)/C=C\C=C\C(=O)OC
inactive: dose: 50.0 mg/kg/injection, schedule: Q01DX001 (ip), vehicle: carboxymethylcellulose (CMC) 95 % of control | [2] 94 % of control | [3] 98 % of control | [4] 98 % of control

c1ccc2cc3c(cc2c1)Nc1cc2ccccc2cc1N3
inactive: dose: 100.0 mg/kg/injection, schedule: Q01DX009 (ip), vehicle: saline with Tween-80 93 % of control | [1] 97 % of control | dose: 200.0 mg/kg/injection, schedule: Q01DX009 (ip), vehicle: saline with Tween-80 93 % of control | [12] 101 % of control | dose: 400.0 mg/kg/injection, schedule: Q01DX009 (ip), vehicle: saline with Tween-80 88 % of control | [13] 103 % of control

COc1cccc(C2NC(=O)CCC2N)c1OC (stereo not given)
inactive: dose: 100.0 mg/kg/injection, schedule: Q04DX002 (ip), vehicle: saline with Tween-80 105 % of control | dose: 200.0 mg/kg/injection, schedule: Q04DX002 (ip), vehicle: saline with Tween-80 102 % of control | dose: 400.0 mg/kg/injection, schedule: Q04DX002 (ip), vehicle: saline with Tween-80 97 % of control

CC(=O)OC(C(C)=O)C(C)=O.CC(=O)OC(C(C)=O)C(C)=O.[Cu]
inactive: dose: 12.0 mg/kg/injection, schedule: Q01DX001 (ip), vehicle: saline 93 % of control | dose: 12.0 mg/kg/injection, schedule: Q04DX003 (ip), vehicle: saline 96 % of control | dose: 25.0 mg/kg/injection, schedule: Q01DX001 (ip), vehicle: saline 95 % of control | [5] 96 % of control | dose: 50.0 mg/kg/injection, schedule: Q01DX001 (ip), vehicle: saline 101 % of control | [6] 103 % of control

C[SiH]1c2ccccc2CCc2ccccc21
inactive: [10] 102 % of control | dose: 100.0 mg/kg/injection, schedule: Q04DX003 (ip), vehicle: Klucel (hydroxypropylcellulose) (HPC) 104 % of control | [11] 104 % of control | dose: 200.0 mg/kg/injection, schedule: Q04DX003 (ip), vehicle: Klucel (hydroxypropylcellulose) (HPC) 105 % of control | dose: 400.0 mg/kg/injection, schedule: Q01DX009 (ip), vehicle: Klucel (hydroxypropylcellulose) (HPC) 106 % of control | dose: 400.0 mg/kg/injection, schedule: Q04DX003 (ip), vehicle: Klucel (hydroxypropylcellulose) (HPC) 107 % of control

COC(=O)c1nc(C(=O)OC)c(C(=O)OC)nc1C(=O)OC
inactive: [1] 88 % of control | [12] 93 % of control | [13] 102 % of control

COc1ccc2c(CSc3nc(N)nc4nc[nH]c34)cc(=O)oc2c1
inactive: dose: 25.0 mg/kg/injection, schedule: Q04DX002 (ip), vehicle: Klucel (hydroxypropylcellulose) (HPC) 108 % of control | dose: 50.0 mg/kg/injection, schedule: Q04DX002 (ip), vehicle: Klucel (hydroxypropylcellulose) (HPC) 112 % of control | dose: 100.0 mg/kg/injection, schedule: Q04DX002 (ip), vehicle: Klucel (hydroxypropylcellulose) (HPC) 120 % of control | dose: 200.0 mg/kg/injection, schedule: Q04DX002 (ip), vehicle: Klucel (hydroxypropylcellulose) (HPC) 123 % of control | dose: 400.0 mg/kg/injection, schedule: Q04DX002 (ip), vehicle: Klucel (hydroxypropylcellulose) (HPC) 115 % of control

CC(=O)C(Cc1ccc(CC(C(C)=O)C(C)=O)cc1)C(C)=O
inactive: [1] 100 % of control | [12] 91 % of control | [13] 100 % of control

CCCn1c(=O)cc(C)c2ccccc21
inactive: dose: 100.0 mg/kg/injection, schedule: Q01DX001 (ip), vehicle: other 105 % of control | dose: 200.0 mg/kg/injection, schedule: Q01DX001 (ip), vehicle: other 90 % of control | dose: 400.0 mg/kg/injection, schedule: Q01DX001 (ip), vehicle: other 91 % of control
